Earlier results as cited in US12110270B2, “Systems and methods for generation of hyperpolarized materials” (NVISION IMAGING TECHNOLOGIES GMBH, priority 2021, dated 2024).
Where two headings read alike, the source gives them in different places.

maximal mole fraction in n-heptane (14.8° C.): 0.935 | maximal mole fraction in n-heptane (−29.2° C.): 0.02
Compound: CC(=O)O [acetic acid]
